Source: PMC11571207, “Stereorandomized Oncocins with Preserved Ribosome Binding and Antibacterial Activity” (Journal of Medicinal Chemistry, 2024)
pKd: −log10 of the molar value. Non-standard residues stand in square brackets, D forms with d. Residues, ends and D or L forms follow the SMILES beside them. Orn = NCCC[C@H](N)C(=O)O

Assays:
[1] = 25% (v/v) human serum in 0.1 M TRIS buffer pH 7.4, peptide 200 μM, 37 °C, 0/24/48/72 h, LC-MS UV trace vs 4-hydroxybenzoic acid internal standard, n = 3
Method: Human serum was diluted in 0.1 M filtered TRIS buffer pH 7.4 (50%, 1:1, v/v). Selected peptides were diluted in 0.1 M filtered TRIS buffer pH 7.4 to a concentration of 400 μM and 0.1 mg/mL 4- hydroxybenzoic acid was added as internal standard. Aliquots of peptide solution (300 μL) were added to aliquots of serum (300 μL) in sterile 1.5 mL Eppendorf tubes, to reach a peptide concentration of 200 μM and 25% (v/v) human serum during the assay. Samples, in triplicate, were incubated at 37 °C under gentle stirri ng (200 rpm). At different time points (0, 24, 48 and 72 hours), 100 μL of each sample was collected and quenched by precipitating serum proteins through the addition of (0.1 M) ZnSO4·7 H2O / ACN (1:1) (0.1 M, 100 μL) and cooling in ice bath for 10 minutes. Protein precipitates were pelleted under centrifugation (5 min at 14’000 rpm) and the supernatants were analysed by LC-MS. Peaks corresponding to the internal standard and the undegraded peptides were integrated from the area under the curves (AUC) of UV traces, with the ratio peptide/standard at t = 0 h as 100%.
Figure S7. Serum stability assay of the respective compound (200 μM), incubated with human serum (25% in TRIS buffer, 0.1 M, pH 7.4) at 37 °C. Aliquots were taken at different time (0 / 24 / 48 and 72 h). Undegraded peptide values determined by RP -HPLC analysis usi ng hydroxybenzoic acid as internal standard. Measured in triplicates and the data represent mean ± SD, n […]
(1 picture or pasted object on this page, not shown here)

[2] = system: human red blood cells; details: red cells of human, 6 h
[3] = molecular target: chaperone DnaK (His-tagged) (UniProt P0A6Y8); assay: MST; 16 two-fold dilutions of L-Onc from a maximum of 100 μM, mixed 1:1 with 40 nM His-Tag-labeled DnaK; MST buffer (50 mM TRIS, 150 mM NaCl, 10 mM MgCl2, Tween 20 0.05%); Monolith NT.115; apparent
chaperone DnaK (His-tagged), sequence (P0A6Y8 whole entry): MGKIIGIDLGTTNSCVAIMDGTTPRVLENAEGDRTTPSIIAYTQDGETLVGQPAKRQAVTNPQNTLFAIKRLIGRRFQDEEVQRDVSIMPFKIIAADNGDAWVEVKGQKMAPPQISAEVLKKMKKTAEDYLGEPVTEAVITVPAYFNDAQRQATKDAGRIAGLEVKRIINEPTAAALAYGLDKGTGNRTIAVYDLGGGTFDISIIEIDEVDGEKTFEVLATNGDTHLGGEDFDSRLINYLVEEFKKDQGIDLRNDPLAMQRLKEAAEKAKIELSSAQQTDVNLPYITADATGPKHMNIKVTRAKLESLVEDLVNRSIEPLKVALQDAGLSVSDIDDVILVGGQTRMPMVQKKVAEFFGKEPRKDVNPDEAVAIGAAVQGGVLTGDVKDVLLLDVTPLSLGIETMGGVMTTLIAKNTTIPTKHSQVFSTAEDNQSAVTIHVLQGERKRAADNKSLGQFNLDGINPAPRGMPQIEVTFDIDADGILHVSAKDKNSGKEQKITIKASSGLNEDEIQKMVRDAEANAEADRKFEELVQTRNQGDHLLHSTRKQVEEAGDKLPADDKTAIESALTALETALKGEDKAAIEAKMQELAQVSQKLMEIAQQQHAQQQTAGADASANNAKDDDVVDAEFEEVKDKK

| Molecule | Serum stability (undegraded peptide) [1] | MHC human red blood cells [2] | pKd [3] |
| --- | --- | --- | --- |
| CC[C@H](C)[C@H](NC(=O)[C@H](CCCN)NC(=O)[C@H](CCCNC(=N)N)NC(=O)[C@@H]1CCCN1C(=O)[C@@H]1CCCN1C(=O)[C@H](CCCNC(=N)N)NC(=O)[C@@H]1CCCN1C(=O)[C@H](CCCNC(=N)N)NC(=O)[C@@H]1CCCN1C(=O)[C@H](CC(C)C)NC(=O)[C@H](Cc1ccc(O)cc1)NC(=O)[C@@H]1CCCN1C(=O)[C@@H]1CCCN1C(=O)[C@H](CCCCN)NC(=O)[C@H](CC(=O)O)NC(=O)[C@@H](N)C(C)C)C(=O)N[C@@H](Cc1ccc(O)cc1)C(=O)N[C@@H](CC(N)=O)C(=O)N[C@@H](CCCN)C(N)=O [Onc72] (H-VDKPPYLPRPRPPR[Orn]IYN[Orn]-NH2) | essentially stable to degradation over 24 h | >1000 µg/mL | – |
| oncocin (L-oncocin) (peptide) | – | – | 4.52 |
